Source: paper PMC10010340, “The Wnt Pathway Inhibitor RXC004 Blocks Tumor Growth and Reverses Immune Evasion in Wnt Ligand–dependent Cancer Models” (Cancer Research Communications, 2022)
Values after ≈ are worked out from the molar mass of the structure shown.

Tests used:
Aqueous solubility = assay type: physicochemical; conditions: pH 7.4 buffer, 25°C
Protocol: Following filtration under positive pressure, compound concentration in solution was assessed by high-performance liquid chromatography coupled to an ultraviolet detector (LC-UV).

SNU-1411 xenograft = assay: In vivo 18FDG-PET; design: species or system mouse (NOD-SCID); conditions: SNU-1411, 5 mg/kg once daily
Protocol: (§1) Experiment was performed at Medicines Discovery Catapult. SNU-1411 (1 × 10^7 cells; NOD-SCID mice) or HPAF-II (1 × 10^7 cells; NOD-SCID mice) were implanted subcutaneously and treatment with RXC004 (5 mg/kg once daily) or vehicle commenced when tumors reached approximately 200 mm^3. Mice were imaged prior to dosing, day 3 and day 7 after dosing. A 10 MBq injection of ^18FDG (PETNET), with a 45-minute washout was followed by a 20-minute PET scan using a Siemens Inveon PET scanner. Tissues removed on day 7 for biodistribution analysis were assessed using a PerkinElmer Wallac Wizard Gamma counter.

Hepatocyte stability [1] = assay type: in vitro ADME, dog (Beagle); conditions: Dog, 1 μmol/L
Protocol: (§2) Metabolic stability: liver microsomes and hepatocytes from human, mouse (CD1), rat (Sprague Dawley) and dog (Beagle) were obtained from Invitrogen. RXC004 (1 μmol/L) was incubated at 37°C with microsomes (0.5 mg · mL^−1) or hepatocytes (0.5 × 10^6 cells · mL^−1). Aliquots were removed at 0–45 minutes and RXC004 concentrations determined by LC/MS-MS analysis. Half-life (T1/2) and intrinsic clearance (CLint) were calculated as described in ref. [18].

[2] = system: cells with upstream aberrations in Wnt pathway components; assay: Cell-cycle analysis by flow cytometry; assay type: cell-based, human; conditions: 100 nmol/L, 3 days
Protocol: For concentration–response effects on gene expression, Single-Shot Cell Lysis kit (Bio-Rad #172-5080) was used for RNA extraction, data were normalized to DMSO-treated controls, and IC50 values determined. For cell-cycle analysis, the cancer cell line panel was treated with RXC004 (100 nmol/L) or DMSO (0.1%) for 3 days. Cell-cycle profiles were determined by staining with propidium iodide (Thermo Fisher Scientific #P3566) and phospho-Ser10-Histone-H3 (AlexaFluor-647, BioLegend #650806), and quantified using an Agilent Novocyte-3000 flow cytometer. For in vitro growth curve analysis, HPAF-II and SNU-1411 cells were seeded in 96-well plates at 2,000 cells/well and imaged on the IncuCyte (Sartorius) at 10× magnification with 4 fields of view per well. Total cell object count over time was calculated using the Adherent Cell-by-Cell analysis module.

Hepatocyte stability [3] = assay type: in vitro ADME, mouse (CD1); conditions: Mouse, 1 μmol/L
Protocol: as §2

HCT116 cells = assay: In vitro glucose uptake; assay type: cell-based, human; conditions: HCT116, RXC004 100 nmol/L, 48 hours
Protocol: (§3) SNU-1411, HPAF-II, and HCT116 cells were treated in vitro for 48 hours with RXC004 (100 nmol/L), Latrunculin A (Abcam #ab144290; 500 nmol/L), or DMSO prior to analysis using the Glucose Uptake Glo Assay Kit (Promega #J1341). The ATPlite assay was used to control for cell viability, confirming RXC004 has no effect on proliferation at this 48 hours timepoint.

HPAF-II cells = assay: In vitro glucose uptake; assay type: cell-based, human; conditions: Homo sapiens, RXC004 100 nmol/L, 48 hours
Protocol: as §3

SNU-1411 cells = assay: In vitro glucose uptake; assay type: cell-based, human; conditions: Homo sapiens; SNU-1411, RXC004 100 nmol/L, 48 hours
Protocol: as §3

In vivo pharmacokinetics = assay: In vivo pharmacokinetics; design: species or system mouse (male CD1); conditions: mouse
Protocol: In vivo pharmacokinetics: RXC004 was dosed to male Sprague Dawley rats, male CD1 mice or dog (beagle) by intravenous and oral routes. Bioanalysis of blood and plasma samples was performed by LC/MS-MS using a Waters TQS or TQMS mass spectrometer. Pharmacokinetic information was derived using WinNonlin software (Certara).

[4] = system: Wnt5a secretion from L-Wnt5a cells; assay: Wnt secretion assay; assay type: cell-based; conditions: 300 nmol/L, 48 hours
Protocol: L-Wnt5a cells (L cells overexpressing Wnt5a; ATCC CRL-2814) were treated with RXC004 (300 nmol/L) or DMSO for 48 hours. Wnt5a secreted into media was detected by Western blotting using anti-Wnt5a antibody (Cell Signaling Technology #2530).

[5] = system: small intestine of SCID-Beige mice; assay: In vivo toxicity in mice, 28 days (small intestine H&E, Ki67, body weight); design: species or system mouse (SCID-Beige)
Protocol: Groups of 9–10 SCID-Beige mice were dosed at Translational Drug Discovery with vehicle, 1.5 mg/kg or 5 mg/kg RXC004 orally twice daily, or 5 mg/kg RXC004 orally once daily, for 28 days. Formulation: 5% DMSO, 95% hydroxyl propyl beta cyclodextrin (25% w/v). Formalin-fixed, paraffin-embedded (FFPE) samples from the small intestine were assessed by hematoxylin and eosin (H&E) and/or Ki67 staining at Histologix.

HPAF-II xenograft = assay: In vivo 18FDG-PET biodistribution; design: species or system mouse (NOD-SCID); conditions: 5 mg/kg once daily, 7-day dosing
Protocol: as §1

recombinant CYP enzymes = assay: Recombinant CYP enzyme assays (metabolism); assay type: in vitro ADME
Lipophilicity (logD7.4) = assay type: physicochemical
Protocol: Lipophilicity (logD7.4): A total of 30 μL of a 20 mmol/L stock solution of RXC004 was added to a vial containing 1.5 mL of pH7.4 phosphate buffer saturated octanol and 1.5 mL of octanol-saturated pH7.4 phosphate buffer, shaken and centrifuged to ensure phase separation. logD7.4 was calculated as the logarithm of the ratio of the concentration of RXC004 (measured by LC-UV in octanol vs. buffer phase).

[6] = male, CD1, in vivo, po, 5 mg/kg p.o.

For Cc1c(-c2ccnc(C(F)(F)F)c2)ncn1CC(=O)Nc1ccc(-c2cnccn2)cn1 [RXC004, 2-[5-methyl-4-[2-(trifluoromethyl)-4-pyridyl]imidazol-1-yl]-N-(5-pyrazin-2-yl-2-pyridyl)acetamide], the solubility at 24 h (Aqueous solubility) was 56 µM (≈ 24.6 µg/mL), the “18FDG tumor:blood ratios” value (SNU-1411 xenograft; 7-day dosing) was “significant decrease in tumor:blood ratios” and the “decrease in maximum standardized uptake value (18FDG-PET)” value (SNU-1411 xenograft; day 7, versus vehicle) was 31%. The “Hepatocyte stability: CLint” value (Hepatocyte stability [1]) was 12.5 μL minute^−^1 · 10^6 cells^−^1, the “expression of mitosis marker phospho-histone-H3” value [2] was “strongly inhibited expression of the mitosis marker phospho-histone-H3” and the “proportion of cells in S-phase” value [2] was “reduced the proportion of cells in S-phase”. The “Hepatocyte stability: CLint” value (Hepatocyte stability [3]) was <3.0 μL minute^−^1 · 10^6 cells^−^1, the glucose uptake (HCT116 cells) was “had no effect” and the inhibition at 0.1 µM (HPAF-II cells) was greater than 50%. The inhibition at 0.1 µM (SNU-1411 cells) was greater than 50%, the clearance (In vivo pharmacokinetics; male, CD1, in vivo, intravenous, 2 mg/kg, dose i.v./p.o. 2/5 mg/kg) was 0.174 L/h/kg and the Vd (In vivo pharmacokinetics; male, CD1, in vivo, intravenous, 2 mg/kg, dose i.v./p.o. 2/5 mg/kg, read-out: Vss) was 0.4 L/kg. The AUC(0-inf) (In vivo pharmacokinetics; [6]) was 33.9 µM·h, the Cmax (In vivo pharmacokinetics; [6]) was 7.6 µM and the concentration at 24 h (In vivo pharmacokinetics; male, CD1, in vivo, po, 5 mg/kg p.o., read-out: C24h (p.o.)) was 0.002 µM. The half-life (In vivo pharmacokinetics; male, CD1, in vivo, dose i.v./p.o. 2/5 mg/kg, read-out: T½ (converted)) was 1.8 h, the “F (p.o.)” value (In vivo pharmacokinetics; dose i.v./p.o. 2/5 mg/kg) was 48% and the “Wnt5a secretion into the media” value [4] was “inhibited Wnt5a secretion”. The “Ki67 proliferation marker in intestinal crypts” value ([5]; 1.5 mg/kg twice daily) was “no effect on the Ki67 proliferation marker”, the villi architecture ([5]; 1.5 mg/kg twice daily) was “No effects” and the villi architecture ([5]; 5 mg/kg once daily) was “No effects”. The “Ki67 proliferation marker in intestinal crypts” value ([5]; 5 mg/kg twice daily) was “clear decrease”, the body weight ([5]; 5 mg/kg twice daily) was “loss of body weight” and the villi architecture ([5]; 5 mg/kg twice daily, only in some animals) was “Disruption of villi architecture”. For the same compound, the “18FDG tumor:blood ratios” value (HPAF-II xenograft) was “significant decrease in tumor:blood ratios”, the “metabolizing CYP enzyme” value (recombinant CYP enzymes) was “exclusively metabolized by CYP3A4” and the logD (Lipophilicity (logD7.4); octanol/phosphate buffer, pH 7.4, pH 7.4, octanol/phosphate buffer, read-out: Measured log D7.4) was 2.4. The “Measured log D7.4” value (Lipophilicity (logD7.4); pH 7.4, octanol/phosphate buffer) was 2.44.
